Paper PMC9741104, “Uptake of Flaxseed Dietary Linusorbs Modulates Regulatory Genes Including Induction of Heat Shock Proteins and Apoptosis” (Foods, 2022)
“And” between values parts separate entries of the source, which are not always exact repeats. Identical values can stand only once. Like-named read-outs stand apart in the source and are kept apart here. Marks after values point to notes of the source that are not given here.

Experiments:
[1] = tested on: Calu-3 cells; experiment: Microarray analysis of apoptosis-regulating genes (Rt2 Profiler PCR Super Array); format: cell-based, human; parameters: key: +: genes over-expressed; NE: not expressed; –: genes under-expressed; details: Calu-3 exposed to LOs
Procedure: Human bronchial epithelial adenocarcinoma cell line (Calu-3) was obtained from the American Type Culture Collection (ATCC, Manassas, VA, USA). Calu-3 cell line was cultured in plastic culture flasks containing Modified Eagle’s Medium (MEM) and supplemented with 10% fetal bovine serum, glutamine (4 mM), and penicillin (100 U/mL)-streptomycin (100 μg/mL) solution. Cells were cultured to a density of 10^6 cells/mL before adding fresh media (on day 3). The cells were then grown at 37 °C under 5% CO2, and 100% humidity.
Microarray analysis was performed to determine LO effects on the expression of genes involved in regulating apoptosis (i.e., pro- or anti-apoptotic genes) in Calu-3 cells. These analyses were using an Rt2 Profiler PCR Super Array kit (Super Arrays Bioscience Corp., Frederick, MD, USA) following manufacturer’s instructions and were recorded using an MX3005P LightCycler (Stratagene, La Jolla, CA, USA).

[2] = Circular dichroism secondary structure estimate in aqueous-DMSO solution; format: physicochemical; details: CD spectra 260–200 nm, H2O/DMSO (3%, v/v), room temperature, CDNN deconvolution, triplicate
Procedure: Circular dichroism (CD) spectroscopy was performed on LO samples using a fresh solution of aqueous-dimethylsulfoxide solution (H2O/DMSO, 3%, v/v). CD measurements were completed using a Pistar 180 spectrometer (Applied Photophysics Ltd., Leatherhead, UK). Sample measurements were conducted at room temperature using a 0.01 cm cuvette (Hellma 106-QSP), and samples were scanned between 200–260 nm at 0.5 nm increments, with a scan rate of 10 nm/min. The instrument was calibrated using (+)-10-camphorsulfonic acid (290.5 nm wavelength). Experiments were performed in triplicate and are reported as mean ± standard deviation (SD). The secondary structure content of the samples was evaluated with the CDNN CD Spectroscopy Deconvolution software version 2.0.3.188 [30]. Molar ellipticities were calculated from molecular masses of 977.26–1074.37 Da for LOs. All spectra were corrected by background subtraction of H2O/DMSO (3%, v/v).

[3] = tested on: HSP 70A; experiment: Induction of HSP 70A in nematodes (qRT-PCR); format: in vivo, Caenorhabditis elegans; details: 2 h exposure, normalized to GAPDH, three repetitions
Procedure: Gene expression of HSP 70A in nematodes was completed as described in Saini et al. (2011). Briefly, C. elegans N2 strains were cultured in the dark and at room temperature on sterile plates (10 mm; VWR, Edmonton, AB, Canada) containing 10% bacteriological agar (Sigma-Aldrich, Oakville, ON, Canada) and autoclaved Baker’s yeast (1%, w/v). C. elegans were sub-cultured every 14 days to fresh plates. Exposure experiments began using C. elegans, which were two weeks old. These cultures were exposed for 2 h to either DMSO (negative control) or various concentrations (0.1, 1.0, 10.0, and 100.0 µM) of LOB3 dissolved in DMSO. After exposure, these organisms were then re-cultured to assess the effects of LOB3 on HSP 70A gene expression. An unamended culture medium was used as the control treatment. After treatment, cultures were centrifuged at 400× g for 10 min at 4 °C. The pellet was retained and stored at −80 °C until further analysis.
RNeasy® Mini kits (Qiagen, Mississauga, ON, Canada) were used to extract total RNA from C. elegans lysates, according to the manufacturer’s instructions. RNA quality was confirmed and quantified using agarose gel electrophoresis and a Nano Drop® spectrophotometer (Thermo Fisher Scientific, Ottawa, ON, Canada), respectively. […] This was accomplished using a Stratagene MX3005P LightCycler (La Jolla, CA, USA). The glyceraldehyde-3-phosphate dehydrogenase gene (GAPDH; GenBank Accession No. X04818) was used as the reference housekeeping gene for qRT-PCR analyses. The primer pairs used during qRT-PCR are listed in Table 2. qRT-PCR reactions were performed using QuantiFast® SYBR® Green PCR kit (Qiagen, Mississauga, ON, Canada) following the manufacturer’s instructions. The thermocycler conditions included an initial denaturation at 95 °C for 5 min, followed by 45 cycles of denaturation at 95 °C for 30 s, annealing at 55 °C for 30 s and elongation at 60 °C for 45 s, to amplify the target gene. Relative gene expression levels were corrected against the GAPDH housekeeping gene using MXPro software. All analyses were completed in triplicate.

[4] = tested on: cancer C6 cells; details: cited from earlier work
[5] = LOs in pig adipose after flaxseed diet (HPLC-ToF-MS); details: pig fed diet with 15% extruded flaxseed meal; fat biopsy at 10th rib, chloroform extract, HPLC-ToF-MS molecular ions
Excerpt: Swine were fed a diet consisting of 15% flaxseed meal that was combined with other ingredients then extruded. Swine fat samples were taken from an 8 mm biopsy punch at the 10th rib, approximately 5 cm from the backbone [31]. The tissue samples were then extracted with chloroform and the extracts were dried, taken up in acetonitrile, and analyzed via direct loop injections using an Agilent 1100-series high-performance liquid chromatography (HPLC, Agilent, Santa Clara, CA, USA) equipped with a time-of-flight mass spectrometer (ToF-MS). Each sample extract was injected at a flow rate of 50 μL/min. The mobile phase consisted of 95% water: methanol containing 0.1% formic acid, and 5% acetonitrile.

[6] = tested on: breast cancer cell line MDA-MB-231; details: doses lower than 10 µM; cited from earlier work
[7] = administered orally and intravenously, cited from earlier work
Excerpt: The combined characteristics of the strong immunosuppressive activity and low toxicity make LOB3 an immunosuppressive drug candidate. Other LOs and their analogs have also been investigated for their immunosuppressant activity. […] Similarly, [1–8-NαC], [1-(Rs, Ss)-MetO]-linusorb B1 (LO1OB1, also known as CLE) ...

[8] = tested on: C. elegans; experiment: Lethality in nematode cultures; format: in vivo, Caenorhabditis elegans; details: 100 µM, 2 h exposure

Substance	BAK1 (BCL2 antagonist/killer 1) up- or down-regulated [1]	BCL2 (B-cell lymphoma 2) up- or down-regulated [1]	CASP10 (Caspase 10) up- or down-regulated [1]	CIDEA (Cell death-inducing DFFA-like effector A) up- or down-regulated [1]	CIDEB (Cell death-inducing DFFA-like effector B) up- or down-regulated [1]	Fas (TNF receptor superfamily member 6) up- or down-regulated [1]	FasL (Fas ligand) up- or down-regulated [1]	HRK (Harakiri) up- or down-regulated [1]	TNF (Tumor necrosis factor) up- or down-regulated [1]	TP53 (Tumor protein p53) up- or down-regulated [1]	TP53BP2 (Tumor protein p53 binding protein 2) up- or down-regulated [1]	Antiparallel (%) [2]	Parallel (%) [2]	Random Coil (%) [2]	α-Helix (%) [2]	β-Turn (%) [2]	further results
[1–8-NαC], [1-(Rs, Ss)-MetO]- linusorb B1 [LO1OB1]	NE	– ^c	NE	+	+	+	NE	+	+	NE	+	0.00%	0.30%	18.20%	75.30%	6.20%	
[1–9-NαC]-linusorb B3 [LOB3]	+ ^a		NE	NE	+	+	+	NE	+	+	+	0.00%	0.3%	0.1%	98.90%	0.7%	Increase in HSP 70A production ([3]; 0.1 µM): 30%; Increase in HSP 70A production ([3]; 1.0 µM): 3.5 fold; Increase in HSP 70A production ([3]; 10.0 µM): 30%; Cytotoxic effects ([4]; concentrations greater than 10.0 µM, changes in cell shape and reduction in cell numbers): cytotoxic effects were observed; Cytotoxic effects ([4]; doses lower than 10 µM): no cytotoxic effects; Distribution to adipose tissue [5]: trace amounts; Cytotoxic effects [6]: no cytotoxic effects; Toxicity ([7]; mice): non-toxic; Toxicity ([7]; rats): non-toxic; Lethality [8]: lethal
[1–9-NαC], [1-(Rs, Ss)-MetO]- linusorb B2 [LO1OB2]	NE ^b	–	+	+	+	+	NE	+	+	+	+	0.00%	0.40%	0.10%	> 75% and 98.90%	0.60%	
